Data from PMC7520961, “Safety evaluation of the interchangeable use of robenacoxib in commercially-available tablets and solution for injection in cats” (BMC Veterinary Research, 2020).

Key:
cats [1] = conditions: in vivo
cats [2] = experiment: Clinical chemistry (target animal safety study); format: in vivo, cat; conditions: for Total Bilirubin (mean ± SD) / GGT (mean ± SD) / AST (mean ± SD) / Creatine Kinase (mean ± SD) / Creatinine (mean ± SD) / Albumin/Globulin Ratio (mean ± SD) / Globulin (mean ± SD) / Albumin (mean ± SD) / Potassium (mean ± SD) / Total Protein (mean ± SD) / Phosphorus (mean ± SD) / Calcium (mean ± SD) / Triglyceride (mean ± SD) / Urea Nitrogen (mean ± SD) / ALT (mean ± SD) / Alkaline Phosphatase (mean ± SD) / Glucose (mean ± SD) / Cholesterol (mean ± SD) / Chloride (mean ± SD) / Sodium (mean ± SD): post-treatment, average of days 13 and 37; for Total Bilirubin (mean ± SD): reference range 0 - 0.3; for GGT (mean ± SD): reference range 0 – 2; for GGT (mean ± SD) / Albumin/Globulin Ratio (mean ± SD): significant treatment x sex and treatment x time effects (p<0.1); for AST (mean ± SD): reference range 0 – 55; for AST (mean ± SD) / Triglyceride (mean ± SD): significant treatment x sex effect (p<0.1); for Creatine Kinase (mean ± SD): reference range 0 – 1213; for Creatinine (mean ± SD): reference range 0.5 - 1.3; for Albumin/Globulin Ratio (mean ± SD): reference range 0.9 - 1.5; for Globulin (mean ± SD): reference range 2.1 - 3.3; for Albumin (mean ± SD): reference range 2.9 - 3.7; for Potassium (mean ± SD): reference range 4.6 - 7.4, significant treatment x time effect (p<0.1); for Total Protein (mean ± SD): reference range 5.4 - 6.7; for Phosphorus (mean ± SD): reference range 6.2 - 9.7, significant (p<0.1); for Calcium (mean ± SD): reference range 9.6 - 11.5; for Triglyceride (mean ± SD): reference range 12 – 64; for Urea Nitrogen (mean ± SD): reference range 15 – 35; for ALT (mean ± SD): reference range 27 – 103; for Alkaline Phosphatase (mean ± SD): reference range 50 – 186; for Glucose (mean ± SD): reference range 55 - 159; for Cholesterol (mean ± SD): reference range 88 – 148; for Chloride (mean ± SD): reference range 112 – 123; for Sodium (mean ± SD): reference range 146 – 160
Experimental: The upper lip was everted and a Surgicutt incision device was used to create a small incision (approximately 1 mm in depth and 3.5 mm in length). Blood flow from the incision site was blotted using filter paper below the incision. The elapsed time from the triggering of the device until blood no longer appeared on the filter paper was recorded as the bleed time. […] Blood samples (3.0 mL) were collected from the jugular vein into tubes containing K3EDTA for evaluation of hematology parameters, sodium citrate for evaluation of coagulation parameters, and serum separators with no anticoagulant for the clinical chemistry samples. […] Coagulation variables were determined using a Stago Compact (Diagnostica Stago, Parsippany, NJ, US), clinical chemistry variables were determined using an Olympus AU2700 or AU640e (Olympus Diagnostics, Southall, UK), and urinalysis variables were determined using a […]-500 or Atlas (Siemens, Munich, Germany), Reichert VET 360 (Reichert Technologies, Buffalo, New York, USA), or light microscope. Post-treatment values were analyzed using […], with treatment group, sex, time, and their interactions as fixed model effects and the pre-treatment value measured closest to dosing as a covariate. Repeated measurements in the same animal were modeled using a compound symmetry or heterogeneous compound symmetry correlation structure (for food consumption: autoregressive first-order or heterogeneous autoregressive first-order); the model with the smallest Akaike's Information Criterion was selected for each outcome. If any of the interactions involving treatment was significant (p < 0.1 for the two-factor interactions or p < 0.05 for the three-factor interaction), it was inappropriate to evaluate the main or overall treatment effect independently of the interacting factor and, as such, treatment comparisons were conducted for each level of the interacting factor. If none of the interactions involving treatment were significant, overall treatment differences were assessed.

cats [3] = experiment: Buccal mucosal bleeding time (BMBT); format: in vivo; conditions: one 2X cat
Experimental: Buccal mucosal bleeding times (BMBT) were measured on all animals on Days − 5 and 36 following ECG examinations while the animals were sedated. The upper lip was everted and a Surgicutt incision device was used to create a small incision (approximately 1 mm in depth and 3.5 mm in length). Blood flow from the incision site was blotted using filter paper below the incision. The elapsed time from the triggering of the device until blood no longer appeared on the filter paper was recorded as the bleed time. Clinical pathology evaluations were conducted on all animals on Days − 13 and − 6 and prior to dosing on Days 13 and 37. Because reference values given by the laboratory were (slightly) different for males and females, they were combined (i.e. lower of the two lower bounds to higher of the two upper bounds) for the tables. […] Hematology variables were determined using an Advia 120 or Advia 2120 (Siemens, Munich, Germany), light microscope, or sediplast column (Polymedco, NY, US). Coagulation variables were determined using a Stago Compact (Diagnostica Stago, Parsippany, NJ, US), clinical chemistry variables were determined using an Olympus AU2700 or AU640e (Olympus Diagnostics, Southall, UK), and urinalysis variables were determined using a Clinitek-500 or Atlas (Siemens, Munich, Germany), Reichert VET 360 (Reichert Technologies, Buffalo, New York, USA), or light microscope.

[4] = parameters: method as in PMID 19161452, PMID 23438125; conditions: elimination in the cat; cited from earlier work
cats [5] = system: cats; parameters: method as in ref 12 = [12]; 12. US Food and Drug Administration Freedom of Information Summary: Original New Animal Drug Application NADA 141–320 (Onsior Robenacoxib Tablets for Cats) 2011.; conditions: six-month target animal safety study, oral robenacoxib at 1, 3 and 5X; cited from earlier work
[6] = 1X (oral ≥2.4, SC 2.0 mg/kg/day)
[7] = 2X (oral ≥4.8, SC 4.0 mg/kg/day)
[8] = 3X (oral ≥7.2, SC 6.0 mg/kg/day)

## CCc1ccc(Nc2c(F)c(F)cc(F)c2F)c(CC(=O)O)c1 [robenacoxib]
Cats [1]
  opthalmoscopic, physical and neurological examinations: no treatment-related effects
Cats [2]; [6]
  Total Bilirubin (mean ± SD): 0.18 ± 0.04 mg/dL
  GGT (mean ± SD): 1.14 ± 0.43 U/L
  AST (mean ± SD): 22.2 ± 8.6 U/L
  Creatine Kinase (mean ± SD): 1479 ± 1901 U/L
  Creatinine (mean ± SD): 0.86 ± 0.13 mg/dL
  Albumin/Globulin Ratio (mean ± SD): 1.29 ± 0.14
  Globulin (mean ± SD): 2.62 ± 0.23 g/dL
  Albumin (mean ± SD): 3.31 ± 0.21 g/dL
  Potassium (mean ± SD): 5.40 ± 0.24 mEq/L
  Total Protein (mean ± SD): 5.93 ± 0.28 g/dL
  Phosphorus (mean ± SD): 8.86 ± 0.76 mg/dL
  Calcium (mean ± SD): 10.01 ± 0.31 mg/dL
  Triglyceride (mean ± SD): 40.1 ± 27.2 mg/dL
  Urea Nitrogen (mean ± SD): 25.3 ± 2.7 mg/dL
  ALT (mean ± SD): 54.6 ± 9.2 U/L
  Alkaline Phosphatase (mean ± SD): 105.6 ± 40.6 U/L
  Glucose (mean ± SD): 85.1 ± 7.1 mg/dL
  Cholesterol (mean ± SD): 105.0 ± 18.1 mg/dL
  Chloride (mean ± SD): 116.63 ± 1.50 mEq/L
  Sodium (mean ± SD): 150.3 ± 1.3 mEq/L
Cats [2]; [7]
  Total Bilirubin (mean ± SD): 0.19 ± 0.03 mg/dL
  GGT (mean ± SD): 1.33 ± 0.65 U/L
  AST (mean ± SD): 22.0 ± 4.1 U/L
  Creatine Kinase (mean ± SD): 975 ± 903 U/L
  Creatinine (mean ± SD): 0.85 ± 0.12 mg/dL
  Albumin/Globulin Ratio (mean ± SD): 1.36 ± 0.14
  Globulin (mean ± SD): 2.57 ± 0.28 g/dL
  Albumin (mean ± SD): 3.46 ± 0.17 g/dL
  Potassium (mean ± SD): 5.33 ± 0.41 mEq/L
  Total Protein (mean ± SD): 6.03 ± 0.35 g/dL
  Phosphorus (mean ± SD): 8.18 ± 0.83 mg/dL
  Calcium (mean ± SD): 10.16 ± 0.26 mg/dL
  Triglyceride (mean ± SD): 32.4 ± 9.1 mg/dL
  Urea Nitrogen (mean ± SD): 24.8 ± 4.0 mg/dL
  ALT (mean ± SD): 56.6 ± 9.4 U/L
  Alkaline Phosphatase (mean ± SD): 94.5 ± 24.4 U/L
  Glucose (mean ± SD): 84.1 ± 9.0 mg/dL
  Cholesterol (mean ± SD): 103.9 ± 14.2 mg/dL
  Chloride (mean ± SD): 115.88 ± 1.71 mEq/L
  Sodium (mean ± SD): 150.5 ± 1.4 mEq/L
Cats [2]; 2X group, not considered clinically relevant
  phosphorus relative to controls (pairwise comparison, pooled samples over all time points): decrease
Cats [2]; [8]
  Total Bilirubin (mean ± SD): 0.19 ± 0.03 mg/dL
  GGT (mean ± SD): 0.94 ± 0.05 U/L
  AST (mean ± SD): 22.8 ± 6.8 U/L
  Creatine Kinase (mean ± SD): 1763 ± 2175 U/L
  Creatinine (mean ± SD): 0.79 ± 0.12 mg/dL
  Albumin/Globulin Ratio (mean ± SD): 1.32 ± 0.16
  Globulin (mean ± SD): 2.66 ± 0.29 g/dL
  Albumin (mean ± SD): 3.44 ± 0.18 g/dL
  Potassium (mean ± SD): 5.50 ± 0.43 mEq/L
  Total Protein (mean ± SD): 6.10 ± 0.34 g/dL
  Phosphorus (mean ± SD): 8.66 ± 0.78 mg/dL
  Calcium (mean ± SD): 10.17 ± 0.26 mg/dL
  Triglyceride (mean ± SD): 37.7 ± 14.7 mg/dL
  Urea Nitrogen (mean ± SD): 25.2 ± 3.9 mg/dL
  ALT (mean ± SD): 55.3 ± 10.5 U/L
  Alkaline Phosphatase (mean ± SD): 90.0 ± 19.5 U/L
  Glucose (mean ± SD): 83.1 ± 6.2 mg/dL
  Cholesterol (mean ± SD): 112.6 ± 23.7 mg/dL
  Chloride (mean ± SD): 115.81 ± 1.97 mEq/L
  Sodium (mean ± SD): 150.6 ± 1.5 mEq/L
Cats [3]
  increase in BMBT value compared to pre-treatment value: approximately seven-fold
[4]
  half-life: less than 2 hours
Cats [5]
  QT interval effect: dose-dependent QT prolongation
  arrhythmias: no arrhythmias were documented
